Data published in PubChem BioAssay AID1902 (Broad Institute, 2009).
Calls of active or inactive are those of the source.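 The calls were made as follows: active = EC50 no more than a set limit of log units above the highest dose; inactive = the rest.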

Target: S. pyogenes SKKanGAS, kanamycin survival, BacTiterGlo, 6 h
Assay: SKKanGAS survival reduction under kanamycin, dose response, streptokinase promoter inhibitor project, SKKanGAS strain, luminescence, dose confirmation (AID 1902);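 also: lower survival reflects blocked streptokinase promoter driving kanamycin resistance gene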

Structure (SMILES)	EC50
O=C(NC(=S)NNC(=O)[C@H]1C[C@@H]1c1ccccc1)c1ccc(F)cc1	0.715 µM
C=C(C)CNC(=S)NNC(=O)CCn1c2ccc(Cl)cc2c2cc(Cl)ccc21	2.31 µM
O=C(Nc1cccc(Cl)c1)Nc1csc([N+](=O)[O-])c1	8.11 µM
c1ccc(CN2CCN(c3nc4ccccc4c4ccccc34)CC2)cc1	5.26 µM
C[C@H]1COc2c(C3(N)CC3)c(F)cc3c(=O)c(C(=O)O)cn1c23	6.2 µM
COc1cccc(/C=C/c2ccc3cccc(O)c3n2)c1OC	0.887 µM
O=C(N/N=C\C=C\c1ccc([N+](=O)[O-])o1)c1cccs1	1.97 µM
FC(F)Sc1ccc(NC(=S)NC(c2ccccc2)c2ccccc2)cc1	2.28 µM
CCn1c(=O)c(C(=O)NNC(=O)Cc2ccccc2)c(O)c2ccccc21	4.71 µM
C/C(=N\Nc1nc2ccc(Cl)cc2o1)c1ccccc1	2.33 µM
Cc1c2ccncc2c(C)c2c1[nH]c1ccccc12	3.02 µM
COc1ccc(-c2oc3cccnc3c2C#CC2(O)CCCCC2)cc1	7.36 µM
CCOc1ccc(-n2cc(-c3ccccc3)c3c(=S)nc[nH]c32)cc1	5.73 µM
CCc1ccc(OCC(=O)NNC(=S)NC(=O)C2CCCCC2)c(Br)c1	< 0.06 µM
Cc1[nH]c(N=Nc2ccccc2)nc1N=Nc1ccccc1	2.8 µM
COc1ccc(/C=C/C(=O)NC(=S)N2CCN(c3ccccc3OC)CC2)cc1	> 15 µM (inactive)
CC(C)CN1C(=S)SC(C)(C)C1n1oc(=O)n(-c2ccc(Cl)cc2)c1=O (centres undefined)	4.33 µM
CSCc1nnc(NC(=O)c2ccc(S(=O)(=O)N(CC(C)C)CC(C)C)cc2)o1	0.724 µM
CC(=O)Oc1c(-c2ccc(Br)o2)oc2ccccc2c1=O	3.34 µM
O=c1[nH]c2cc3c(cc2cc1CN(CCc1ccccc1)Cc1nnnn1CC1CCCO1)OCO3 (centres undefined)	> 15 µM (inactive)
Cc1nc2ccccc2n1/N=C/c1ccc([N+](=O)[O-])s1	2.39 µM
CC(=O)N(C)c1ccc(OCC(O)Cn2c3ccc(Cl)cc3c3cc(Cl)ccc32)cc1 (centres undefined)	3.35 µM

Structure (SMILES)	EC50
O=C(Nc1cccc(C(F)(F)F)c1)Oc1ccc(Cl)c2cccnc12	1.94 µM
O=c1c2cc(Br)ccc2nc(-c2ccc(Cl)cc2)n1O	1.07 µM
CCn1nc(NC(=O)c2ccncc2)c2cc3cc(C)ccc3nc21	2.66 µM
COc1ccc(NC(=O)c2c[nH]n3c(=O)cc(C4CCN(C(=O)OC(C)(C)C)CC4)nc23)cc1Cl	3.8 µM
O=C(C[n+]1cnn(CC(=O)c2ccc(Cl)cc2Cl)c1)c1ccc([N+](=O)[O-])cc1	12.3 µM
Cc1ccccc1C(=O)NNC(=S)NC(=O)c1cccs1	2.31 µM
CCCCC(=O)NC(=S)NNC(=O)CCc1ccccc1	5 µM
Cc1ccccc1NC(=O)NCCCCc1ccccc1	> 15 µM (inactive)
O=c1[nH]c2ccc(Cl)cc2c(-c2ccccc2)c1SC(=S)N1CCOCC1	0.697 µM
Oc1nc(Nc2ccc(Cl)cc2Cl)sc1/C=C1\C=Nc2ccccc21	1.76 µM
COc1ccc(-c2cc(-c3ccc(C)cc3)n[nH]2)c(O)c1	2.76 µM
CC[C@@H](C)[C@H](CNC)NC[C@@H](Cc1cccc2ccccc12)NCCc1cccc(C(F)(F)F)c1	2.44 µM
COC(=O)c1ccc(/C=C/c2ccc3cccc(OC(C)=O)c3n2)cc1	1.18 µM
CCOC(=O)Nc1ccc(OCc2nnc3c4ccccc4c(C)nn23)cc1	< 0.06 µM
CC(C)CCn1c(=O)c(C(=O)N/N=C/c2cccc(F)c2)c(O)c2ccccc21	1.17 µM
O=C(Nc1cc(Cl)ccc1-n1cncn1)c1ccc([N+](=O)[O-])o1	6.73 µM
FC(F)(F)c1cccc(-c2nc3nc(Cl)c(Cl)nc3[nH]2)c1	6.58 µM
COC(=O)c1c(NC(=O)COc2ccc(Cl)cc2)sc2c1CC(C)(C)NC2(C)C	12.5 µM
C/C(=N/NC(=O)CNC(=O)c1cccnc1)c1cccc([N+](=O)[O-])c1	> 15 µM (inactive)
O=S(=O)(N[C@H]1C[C@@H](NS(=O)(=O)OCC(Cl)(Cl)Cl)C2CCCCC21)OCC(Cl)(Cl)Cl (some centres undefined)	1.86 µM
CCc1ccc(NC2=NCC(c3ccccc3)S2)cc1 (centres undefined)	6.4 µM
COC(=O)c1nc(NC(=S)NC(=O)c2cccs2)sc1C	12.7 µM

Structure (SMILES)	EC50
Cc1ccc(CN(C(=O)c2ccco2)C2CCS(=O)(=O)C2)cc1 (centres undefined)	> 15 µM (inactive)
Cc1ccccc1OCC(=O)NNC(=S)NC(=O)c1ccco1	0.338 µM
CCOc1ccc(Cl)cc1S(=O)(=O)n1cnc2cc(C)c(C)cc21	4.77 µM
Oc1ccc(Cl)cc1C1=NNC(c2ccc(Cl)cc2)C1 (centres undefined)	1.1 µM
COc1ccc(/C=N/n2c(-c3cccs3)n[nH]c2=S)cc1	14.3 µM
Cc1ccc(-c2cc(-c3ccccc3)nc(N(C)N)n2)cc1	6.06 µM
O=C1NC(=O)/C(=C/c2ccccc2Oc2ccc(Cl)cc2)S1	6.33 µM
O=C(CCl)c1ccc(Cc2ncc(C(F)(F)F)cc2Cl)s1	3.69 µM
CNC[C@H](Cc1ccccc1)NC[C@@H](Cc1cccc2ccccc12)NCCc1ccc(C)cc1	4.28 µM
COc1ccc2oc(C(=O)Nc3nc4ccccc4[nH]3)c(C)c2c1	5.62 µM
O=C(NCCS(=O)(=O)N1CCN(c2ccccc2F)CC1)C1CC(=O)N(c2ccc(F)cc2)C1 (centres undefined)	> 15 µM (inactive)
CC(C)(C)c1ccc(C(=O)NC(=S)NNC(=O)COc2ccccc2)cc1	< 0.06 µM
Cc1cc(C)cc(NC(=S)NCCSc2ccc(Cl)cc2)c1	13.5 µM
CCn1cc(Cl)c(C(=O)N2N=C(c3ccc4ccccc4c3)CC2c2ccccc2O)n1 (centres undefined)	6.13 µM
CC1(C)CC(=O)C2=C(C1)N=C1c3ccccc3C(=O)C1C2c1ccc(Cl)cc1 (centres undefined)	8.16 µM
CCOc1ccc(C(=O)NC(=S)Nc2ccc(N3CCOCC3)c(Cl)c2)cc1[N+](=O)[O-]	0.714 µM
CC(C)/C(=N/Nc1ccccc1[N+](=O)[O-])c1ccccc1	6.51 µM
CC(C)=CCc1c(O)c(CC=C(C)C)c2occ(-c3ccc(O)cc3)c(=O)c2c1O	1.86 µM
CC1CCc2c(sc3nc(C(C)(C)C)nc(N4CCN(C(=O)CCl)CC4)c23)C1 (centres undefined)	3.6 µM
COc1ccc(-c2cc(C3CCN(c4ncccc4[N+](=O)[O-])CC3)[nH]n2)cc1	5.01 µM
CC(Oc1ccc(Cl)cc1Cl)C(=O)NC1=NN(c2ccccc2)C(=O)C1 (centres undefined)	2.92 µM
O=C(Cc1ccccc1)N/N=C/c1ccccn1	> 15 µM (inactive)

Structure (SMILES)	EC50
O=C(NC(NC(=S)Nc1ccc(Cl)cc1Cl)C(Cl)(Cl)Cl)c1cccc([N+](=O)[O-])c1 (centres undefined)	0.99 µM
O=S(=O)(Nc1ccc(-c2csc(-c3ccccc3)n2)cc1)c1ccc(F)cc1	1.92 µM
Cc1c(C(=O)Nc2ccc3c(c2)OCCO3)sc2nc(-c3ccccc3)cn12	2.52 µM
O=C(O)c1ccccc1-c1ccccc1C(=O)Nc1ccc(-c2nc3cc(Cl)ccc3o2)cc1	5.3 µM
Cc1ccc2nc(N3C(=O)CNC3=S)sc2c1	4.32 µM
COc1c(N2CCNC(C)C2)c(F)cc2c(=O)c(C(=O)O)cn(C3CC3)c12 (centres undefined)	0.668 µM
CCn1cc(C(=O)O)c(=O)c2cc(F)c(N3CCN(S(=O)(=O)c4ccc5c(c4)OCCO5)CC3)cc21	2.9 µM
CC1CCN(c2nc(-c3ccccc3)cc(C(F)(F)F)n2)CC1	4.58 µM
Cc1ccc(CN2C(=O)c3ccccc3NC2c2cc(Br)ccc2O)cc1 (centres undefined)	4.31 µM
O=C(Nc1cccnc1)Nc1cc(Cl)cc(Cl)c1	8.7 µM
O=C1c2ccccc2C2=Nc3ccccc3SC(c3ccc(Cl)cc3)C12 (centres undefined)	3.9 µM
CS(=O)(=O)Nc1ccc(C2=NN(C(=O)C3CCCCC3)C(c3cccs3)C2)cc1 (centres undefined)	3.94 µM
CC(C)c1ccc2nc3sc(C(=O)N4CCc5ccccc5C4)c(N)c3cc2c1	14.5 µM
CC(=O)N1CCN(c2ccccc2NC(=O)c2cccs2)CC1	> 15 µM (inactive)
COc1ccccc1N1CCN(C(=O)/C=C/c2c(Cl)nc3ccccn23)CC1	1.6 µM
CCCCCCCCCC[N+](C)(C)CC/C=C1/c2ccccc2Sc2ccc(Cl)cc21	2.31 µM
CCCCc1c(C)nn(-c2nnc3c4ccccc4n(CC)c3n2)c1C	1.84 µM
CCOC(=O)C1=NN(C(=O)c2ccc(C)cc2)C(O)(c2ccc(Cl)cc2)C1 (centres undefined)	3.06 µM
Cc1ccc(-c2nn(CCC(=O)O)cc2/C=C\C(=O)c2ccc(Br)cc2)cc1	6.54 µM
COc1ccc(-n2c(=S)[nH]c3cc(C(=O)Nc4ccc(C)c(F)c4)ccc3c2=O)c(OC)c1	2.84 µM
COc1ccccc1NC(=O)NCCCCc1ccccc1	> 15 µM (inactive)
CCCN(CC1CC1)c1nc(C)nc(Nc2c(Cl)cc(Cl)cc2Cl)c1Cl	1.26 µM

Structure (SMILES)	EC50
CCC(=O)N(CCC(Cc1ccccc1)c1ccc2c(c1)OCO2)Cc1ccccc1F (centres undefined)	6.5 µM
Cc1cc(N/N=C/c2cccc(Cl)c2)nc(-n2nc(C)cc2C)n1	0.966 µM
CCCCCCOC(=O)/C=C/c1c(C)[nH]c(=O)[nH]c1=O	0.475 µM
COc1cccc(NC(=O)NCCCCc2ccccc2)c1	> 15 µM (inactive)
COc1ccc(NC(=O)c2ccc3c(c2)NC(=O)CS3)cc1S(=O)(=O)Nc1ccc(Br)cc1	3.38 µM
FC(F)(F)c1cc(-c2ccco2)nc(NCc2ccc(Cl)cc2)n1	7.1 µM
Cc1cc(N/N=C/c2ccc(O)c(C)c2O)nc(-c2ccccc2O)n1	3.09 µM
Cc1nc(-c2ccccn2)nc(SCC(=O)c2ccccc2)c1Cl	0.811 µM
Cc1cccc(CSc2ncnc3c2cnn3Cc2ccccc2)c1	4.58 µM
COc1ccccc1C(=O)NNC(=S)NC(=O)c1ccco1	0.383 µM
N#Cc1ccc(C(=O)Nc2nc(SCc3ccc(Cl)cc3)n[nH]2)cc1	1.52 µM
Cc1cc(/C=C2\SC(=S)NC2=O)c(C)n1-c1ccc(O)cc1	1.1 µM
COc1ccc(-c2nc(NC(=O)C3CC(=O)N(c4ccc5c(c4)OCCO5)C3)sc2C)cc1 (centres undefined)	12 µM
Cc1ccc2nc(N/C(=N/S(=O)(=O)c3ccc(F)cc3)c3ccccc3)sc2c1	6.17 µM
Cc1c(Cl)c(C(F)F)nn1CC(=O)NC1C(=O)N2C(C(=O)O)=C(CSc3nnnn3C)CSC12 (centres undefined)	< 0.06 µM
NC(=S)N=Nc1ccc(NN=C(N)N)cc1	< 0.06 µM
COCCn1c(N)c(C(=O)Nc2sc3c(c2C(=O)OC)CCCC3)c2nc3ccccc3nc21	4.57 µM
CC(C)N1CCc2c(sc(NC(=O)c3ccc(S(=O)(=O)N(C)CC4CCCO4)cc3)c2C(N)=O)C1 (centres undefined)	> 15 µM (inactive)
COc1ccc(C(=O)/C=C/c2ccc(O)cc2)c(O)c1CC=C(C)C	2.14 µM
Cc1ccc(N=Nc2ccc(O)c3ncccc23)cc1	0.098 µM
O=C(O)c1ccccc1N/N=C/c1cc(Br)cc(Br)c1O	7.96 µM
